Source: ChEMBL document CHEMBL2396621, “Design, synthesis and biological evaluation of 2-mercapto-3-phenethylquinazoline bearing anilide fragments as potential antitumor agents: molecular docking study” (2013)

Legend:
Type in all cases: functional
NCI-H322M = assay: Cytotoxicity against human NCI-H322M cells assessed as growth inhibition at 10 uM after 48 hrs by coulter counter analysis; details: read-out: GI
NCI-H23 = assay: Cytotoxicity against human NCI-H23 cells assessed as growth inhibition at 10 uM after 48 hrs by coulter counter analysis; details: NCI-H23, 48 h, read-out: GI
HOP-62 = assay: Cytotoxicity against human HOP62 cells assessed as growth inhibition at 10 uM after 48 hrs by coulter counter analysis; details: HOP-62, 48 h, read-out: GI
[1] = Cytotoxicity against human EKVX cells assessed as growth inhibition at 10 uM after 48 hrs by coulter counter analysis; details: read-out: GI
A549 = assay: Cytotoxicity against human A549 cells assessed as growth inhibition at 10 uM after 48 hrs by coulter counter analysis; details: A549, 48 h, read-out: GI
T47D = assay: Cytotoxicity against human T47D cells assessed as growth inhibition at 10 uM after 48 hrs by coulter counter analysis; details: read-out: GI
BT-549 = assay: Cytotoxicity against human BT549 cells assessed as growth inhibition at 10 uM after 48 hrs by coulter counter analysis; details: BT-549, 48 h, read-out: GI
Hs-578T = assay: Cytotoxicity against human Hs578T cells assessed as growth inhibition at 10 uM after 48 hrs by coulter counter analysis; details: read-out: GI
PC-3 = assay: Cytotoxicity against human PC3 cells assessed as growth inhibition at 10 uM after 48 hrs by coulter counter analysis; details: PC-3, 48 h, read-out: GI
UO-31 = assay: Cytotoxicity against human UO31 cells assessed as growth inhibition at 10 uM after 48 hrs by coulter counter analysis; details: UO-31, 48 h, read-out: GI
TK-10 = assay: Cytotoxicity against human TK10 cells assessed as growth inhibition at 10 uM after 48 hrs by coulter counter analysis; details: TK-10, 48 h, read-out: GI
RXF 393 = assay: Cytotoxicity against human RXF393 cells assessed as growth inhibition at 10 uM after 48 hrs by coulter counter analysis; details: RXF 393, 48 h, read-out: GI
A498 = assay: Cytotoxicity against human A498 cells assessed as growth inhibition at 10 uM after 48 hrs by coulter counter analysis; details: A498, 48 h, read-out: GI
SK-OV-3 = assay: Cytotoxicity against human SKOV3 cells assessed as growth inhibition at 10 uM after 48 hrs by coulter counter analysis; details: SK-OV-3, 48 h, read-out: GI
786-0 = assay: Cytotoxicity against human 786-0 cells assessed as growth inhibition at 10 uM after 48 hrs by coulter counter analysis; details: 786-0, 48 h, read-out: GI
[2] = Cytotoxicity against human NCI-ADR-RES cells assessed as growth inhibition at 10 uM after 48 hrs by coulter counter analysis; details: read-out: GI
OVCAR-8 = assay: Cytotoxicity against human OVCAR8 cells assessed as growth inhibition at 10 uM after 48 hrs by coulter counter analysis; details: OVCAR-8, 48 h, read-out: GI
OVCAR-5 = assay: Cytotoxicity against human OVCAR5 cells assessed as growth inhibition at 10 uM after 48 hrs by coulter counter analysis; details: OVCAR-5, 48 h, read-out: GI
OVCAR-4 = assay: Cytotoxicity against human OVCAR4 cells assessed as growth inhibition at 10 uM after 48 hrs by coulter counter analysis; details: OVCAR-4, 48 h, read-out: GI
OVCAR-3 = assay: Cytotoxicity against human OVCAR3 cells assessed as growth inhibition at 10 uM after 48 hrs by coulter counter analysis; details: OVCAR-3, 48 h, read-out: GI
IGROV-1 = assay: Cytotoxicity against human IGROV1 cells assessed as growth inhibition at 10 uM after 48 hrs by coulter counter analysis; details: IGROV-1, 48 h, read-out: GI
UACC-62 = assay: Cytotoxicity against human UACC62 cells assessed as growth inhibition at 10 uM after 48 hrs by coulter counter analysis; details: UACC-62, 48 h, read-out: GI
MDA-MB-435 = assay: Cytotoxicity against human MDA-MB-435 cells assessed as growth inhibition at 10 uM after 48 hrs by coulter counter analysis; details: MDA-MB-435, 48 h, read-out: GI
Malme-3M = assay: Cytotoxicity against human MALME-3M cells assessed as growth inhibition at 10 uM after 48 hrs by coulter counter analysis; details: read-out: GI
LOX IMVI = assay: Cytotoxicity against human LOXIMVI cells assessed as growth inhibition at 10 uM after 48 hrs by coulter counter analysis; details: read-out: GI
U-251 = assay: Cytotoxicity against human U251 cells assessed as growth inhibition at 10 uM after 48 hrs by coulter counter analysis; details: U-251, 48 h, read-out: GI
SNB-75 = assay: Cytotoxicity against human SNB75 cells assessed as growth inhibition at 10 uM after 48 hrs by coulter counter analysis; details: SNB-75, 48 h, read-out: GI
SNB-19 = assay: Cytotoxicity against human SNB19 cells assessed as growth inhibition at 10 uM after 48 hrs by coulter counter analysis; details: SNB-19, 48 h, read-out: GI
SF-539 = assay: Cytotoxicity against human SF539 cells assessed as growth inhibition at 10 uM after 48 hrs by coulter counter analysis; details: SF-539, 48 h, read-out: GI
SF-268 = assay: Cytotoxicity against human SF268 cells assessed as growth inhibition at 10 uM after 48 hrs by coulter counter analysis; details: SF-268, 48 h, read-out: GI
SW-620 = assay: Cytotoxicity against human SW620 cells assessed as growth inhibition at 10 uM after 48 hrs by coulter counter analysis; details: SW-620, 48 h, read-out: GI
KM12 = assay: Cytotoxicity against human KM12 cells assessed as growth inhibition at 10 uM after 48 hrs by coulter counter analysis; details: KM12, 48 h, read-out: GI
HT-29 = assay: Cytotoxicity against human HT-29 cells assessed as growth inhibition at 10 uM after 48 hrs by coulter counter analysis; details: HT-29, 48 h, read-out: GI
HCT-15 = assay: Cytotoxicity against human HCT15 cells assessed as growth inhibition at 10 uM after 48 hrs by coulter counter analysis; details: HCT-15, 48 h, read-out: GI
HCT-116 = assay: Cytotoxicity against human HCT116 cells assessed as growth inhibition at 10 uM after 48 hrs by coulter counter analysis; details: HCT-116, 48 h, read-out: GI
HCC 2998 = assay: Cytotoxicity against human HCC2998 cells assessed as growth inhibition at 10 uM after 48 hrs by coulter counter analysis; details: HCC 2998, 48 h, read-out: GI
COLO 205 = assay: Cytotoxicity against human COLO205 cells assessed as growth inhibition at 10 uM after 48 hrs by coulter counter analysis; details: COLO 205, 48 h, read-out: GI
NCI-H460 = assay: Cytotoxicity against human NCI-H460 cells assessed as growth inhibition at 10 uM after 48 hrs by coulter counter analysis; details: NCI-H460, 48 h, read-out: GI

Structure (SMILES)	inhibition of growth at 10 µM (NCI-H322M) [%]	inhibition of growth at 10 µM (NCI-H23) [%]	inhibition of growth at 10 µM (HOP-62) [%]	inhibition of growth at 10 µM [1] [%]	inhibition of growth at 10 µM (A549) [%]	inhibition of growth at 10 µM (T47D) [%]	inhibition of growth at 10 µM (BT-549) [%]	inhibition of growth at 10 µM (Hs-578T) [%]	inhibition of growth at 10 µM (PC-3) [%]	inhibition of growth at 10 µM (UO-31) [%]	inhibition of growth at 10 µM (TK-10) [%]	inhibition of growth at 10 µM (RXF 393) [%]	inhibition of growth at 10 µM (A498) [%]	inhibition of growth at 10 µM (SK-OV-3) [%]	inhibition of growth at 10 µM (786-0) [%]	inhibition of growth at 10 µM [2] [%]	inhibition of growth at 10 µM (OVCAR-8) [%]	inhibition of growth at 10 µM (OVCAR-5) [%]	inhibition of growth at 10 µM (OVCAR-4) [%]	inhibition of growth at 10 µM (OVCAR-3) [%]	further results
COc1cc(NC(=O)CSc2nc3ccccc3c(=O)n2CCc2ccccc2)cc(OC)c1OC	73	74	91	35	76	> 100	> 100	64	59	> 100	> 100	55	> 100	> 100	> 100	64	70	35	47	> 100	inhibition of growth at 10 µM (IGROV-1): 92%; inhibition of growth at 10 µM (UACC-62): 25%; inhibition of growth at 10 µM (MDA-MB-435): > 100%; inhibition of growth at 10 µM (Malme-3M): 59%; inhibition of growth at 10 µM (LOX IMVI): 70%; inhibition of growth at 10 µM (U-251): > 100%; inhibition of growth at 10 µM (SNB-75): > 100%; inhibition of growth at 10 µM (SNB-19): 73%; inhibition of growth at 10 µM (SF-539): > 100%; inhibition of growth at 10 µM (SF-268): 87%; inhibition of growth at 10 µM (SW-620): 52%; inhibition of growth at 10 µM (KM12): 93%; inhibition of growth at 10 µM (HT-29): 85%; inhibition of growth at 10 µM (HCT-15): 11%; inhibition of growth at 10 µM (HCT-116): > 100%; inhibition of growth at 10 µM (HCC 2998): 66%; inhibition of growth at 10 µM (COLO 205): 71%; inhibition of growth at 10 µM (NCI-H460): > 100%
CCOc1ccc(NC(=O)CSc2nc3ccccc3c(=O)n2CCc2ccccc2)cc1	23	< 10	36	19	13	15	< 10	< 10	< 10	26	< 10	13	< 10	< 10	< 10	< 10	29	< 10	< 10	< 10	inhibition of growth at 10 µM (IGROV-1): 21%; inhibition of growth at 10 µM (UACC-62): < 10%; inhibition of growth at 10 µM (MDA-MB-435): 14%; inhibition of growth at 10 µM (Malme-3M): 37%; inhibition of growth at 10 µM (LOX IMVI): 11%; inhibition of growth at 10 µM (U-251): 27%; inhibition of growth at 10 µM (SNB-75): 21%; inhibition of growth at 10 µM (SNB-19): < 10%; inhibition of growth at 10 µM (SF-539): < 10%; inhibition of growth at 10 µM (SF-268): 25%; inhibition of growth at 10 µM (SW-620): < 10%; inhibition of growth at 10 µM (KM12): < 10%; inhibition of growth at 10 µM (HT-29): 10%; inhibition of growth at 10 µM (HCT-15): < 10%; inhibition of growth at 10 µM (HCT-116): 16%; inhibition of growth at 10 µM (HCC 2998): < 10%; inhibition of growth at 10 µM (COLO 205): < 10%; inhibition of growth at 10 µM (NCI-H460): 11%
O=C(CSc1nc2ccccc2c(=O)n1CCc1ccccc1)Nc1ccc(F)cc1	17	12	< 10	24	23	25	10	16	16	31	< 10	13	10	25	< 10	< 10	< 10	< 10	< 10	< 10	inhibition of growth at 10 µM (IGROV-1): 16%; inhibition of growth at 10 µM (UACC-62): 25%; inhibition of growth at 10 µM (MDA-MB-435): < 10%; inhibition of growth at 10 µM (Malme-3M): 11%; inhibition of growth at 10 µM (LOX IMVI): 18%; inhibition of growth at 10 µM (U-251): 17%; inhibition of growth at 10 µM (SNB-75): < 10%; inhibition of growth at 10 µM (SNB-19): < 10%; inhibition of growth at 10 µM (SF-539): < 10%; inhibition of growth at 10 µM (SF-268): < 10%; inhibition of growth at 10 µM (SW-620): < 10%; inhibition of growth at 10 µM (KM12): < 10%; inhibition of growth at 10 µM (HT-29): 10%; inhibition of growth at 10 µM (HCT-15): 10%; inhibition of growth at 10 µM (HCT-116): 19%; inhibition of growth at 10 µM (HCC 2998): < 10%; inhibition of growth at 10 µM (COLO 205): < 10%; inhibition of growth at 10 µM (NCI-H460): < 10%
COc1cc(OC(=O)CSc2nc3ccccc3c(=O)n2CCc2ccccc2)cc(OC)c1OC	11	< 10	< 10	36	10	26	10	< 10	< 10	37	< 10	< 10	< 10	< 10	< 10	11	< 10	< 10	< 10	< 10	inhibition of growth at 10 µM (IGROV-1): 11%; inhibition of growth at 10 µM (UACC-62): 23%; inhibition of growth at 10 µM (MDA-MB-435): < 10%; inhibition of growth at 10 µM (Malme-3M): < 10%; inhibition of growth at 10 µM (LOX IMVI): < 10%; inhibition of growth at 10 µM (U-251): 26%; inhibition of growth at 10 µM (SNB-75): 12%; inhibition of growth at 10 µM (SNB-19): < 10%; inhibition of growth at 10 µM (SF-539): < 10%; inhibition of growth at 10 µM (SF-268): < 10%; inhibition of growth at 10 µM (SW-620): < 10%; inhibition of growth at 10 µM (KM12): < 10%; inhibition of growth at 10 µM (HT-29): < 10%; inhibition of growth at 10 µM (HCT-15): 48%; inhibition of growth at 10 µM (HCT-116): 20%; inhibition of growth at 10 µM (HCC 2998): < 10%; inhibition of growth at 10 µM (COLO 205): < 10%; inhibition of growth at 10 µM (NCI-H460): 26%
